# Source: ChEMBL document CHEMBL4138112, “Synthesis of novel indole derivatives as promising DNA-binding agents and evaluation of antitumor and antitopoisomerase I activities” (Eur J Med Chem, 2017)
# pIC50: −log10 of the molar value. Active and inactive are the calls of the source. The rule behind the calls is not given here.
# Tests used:
# [1] = tested on: T47D; assay: Cytotoxicity against human T47D cells assessed as reduction in cell viability after 72 hrs by MTT assay; assay type: functional, cell-based
# [2] = tested on: Calf thymus DNA; assay: Binding affinity to calf thymus DNA assessed as hyperchromicity at 10 to 80 uM by UV-Visible absorption spectroscopy relative to control; assay type: nucleic-acid assay; conditions: Bos taurus
# [3] = tested on: HL-60; assay: Cytotoxicity against human HL60 cells assessed as reduction in cell viability after 72 hrs by MTT assay; assay type: functional, cell-based; conditions: HL-60, 72 h
# [4] = tested on: Calf thymus DNA; assay: Inhibition of ethidium bromide binding to calf thymus DNA by fluorescence spectra analysis; assay type: nucleic-acid assay; conditions: Bos taurus
# [5] = tested on: MCF7; assay: Cytotoxicity against human MCF7 cells assessed as reduction in cell viability after 72 hrs by MTT assay; assay type: functional, cell-based; conditions: MCF7, 72 h
# [6] = tested on: K562; assay: Cytotoxicity against human K562 cells assessed as reduction in cell viability after 72 hrs by MTT assay; assay type: functional, cell-based; conditions: K562, 72 h
# [7] = tested on: Calf thymus DNA; assay: Binding affinity to calf thymus DNA by UV-Visible absorption spectroscopy; assay type: nucleic-acid assay; conditions: Bos taurus
# [8] = tested on: Calf thymus DNA; assay: Binding affinity to calf thymus DNA assessed as change in absorption maximum at 10 to 80 uM by UV-Visible absorption spectroscopy (reference value: 425 to 500 nanometer); assay type: nucleic-acid assay; conditions: Bos taurus
# [9] = tested on: Calf thymus DNA; assay: Binding affinity to calf thymus DNA assessed as hypochromicity at 10 to 80 uM by UV-Visible absorption spectroscopy relative to control; assay type: nucleic-acid assay; conditions: Bos taurus
# [10] = tested on: Calf thymus DNA; assay: Inhibition of ethidium bromide binding to calf thymus DNA at 20 to 200 uM by fluorescence spectra analysis; assay type: nucleic-acid assay; conditions: Bos taurus
# [11] = biological target: T1, DNA topoisomerase 1 (Homo sapiens) (UniProt P11387); assay: Inhibition of human recombinant topoisomerase 1-mediated relaxation of supercoiled pUC19 DNA at 10 to 50 uM after 45 mins by ethidium bromide staining based agarose gel electrophoresis method
# T1 sequence (whole entry): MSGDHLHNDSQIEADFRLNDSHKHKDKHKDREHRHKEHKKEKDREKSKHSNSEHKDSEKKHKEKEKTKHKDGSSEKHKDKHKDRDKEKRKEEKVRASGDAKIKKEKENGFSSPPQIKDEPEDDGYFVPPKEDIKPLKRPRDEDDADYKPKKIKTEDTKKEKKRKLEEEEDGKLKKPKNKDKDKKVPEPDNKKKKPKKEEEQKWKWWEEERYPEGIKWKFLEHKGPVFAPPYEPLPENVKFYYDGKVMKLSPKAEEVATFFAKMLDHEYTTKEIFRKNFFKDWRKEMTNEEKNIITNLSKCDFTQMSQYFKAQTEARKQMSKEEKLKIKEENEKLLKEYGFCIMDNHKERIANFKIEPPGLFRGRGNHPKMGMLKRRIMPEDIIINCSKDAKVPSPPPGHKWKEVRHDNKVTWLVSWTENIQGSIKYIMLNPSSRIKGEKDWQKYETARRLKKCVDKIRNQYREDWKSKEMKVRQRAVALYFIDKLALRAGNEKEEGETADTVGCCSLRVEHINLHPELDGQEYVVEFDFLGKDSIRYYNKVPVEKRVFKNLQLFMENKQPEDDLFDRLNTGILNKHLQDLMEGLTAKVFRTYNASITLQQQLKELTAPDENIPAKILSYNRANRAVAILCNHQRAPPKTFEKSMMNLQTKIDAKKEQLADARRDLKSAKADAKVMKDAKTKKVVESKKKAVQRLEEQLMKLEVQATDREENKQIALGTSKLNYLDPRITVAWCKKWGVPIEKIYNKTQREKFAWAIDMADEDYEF
Activity [2] [%],KSV [4],Kb [7] [×10⁴ /M],Activity [8] [nm],Activity [9] [%],Activity [10],inhibition [11],Structure (SMILES),pIC50 [1],pIC50 [3],pIC50 [5],pIC50 [6]
23,2.96 ×10³ /M,1.84,411 to 413,,,,NN1C(=O)/C(=C/c2c[nH]c3ccc(Br)cc23)SC1=S,< 4.30,5.17,< 4.30,< 4.30
75,1.78 ×10³ /M,4.51,436 to 462,,,,O=C1NC(=S)S/C1=C\c1c[nH]c2ccccc12,< 4.30,< 4.30,< 4.30,< 4.30
,1.36 ×10³ /M,6.27,423,11,,,O=C1NC(=S)N/C1=C\c1c[nH]c2ccccc12,< 4.30,< 4.30,4.91,< 4.30
6,1.81 ×10⁴ /M,5.69,504 to 507,,Active,Active,NN1C(=O)/C(=C/c2c[nH]c3ccccc23)SC1=S,< 4.30,5.44,< 4.30,4.65
,1.59 ×10³ /M,7.26,378,24,,,O=C1NC(=O)/C(=C/c2c[nH]c3ccccc23)S1,5.71,4.89,< 4.30,< 4.30
,3.86 ×10³ /M,5.24,457,6,,,O=C1NC(=O)/C(=C/c2c[nH]c3ccc(Br)cc23)S1,< 4.30,< 4.30,< 4.30,< 4.30
,,,,,,,COc1cccc2c1C(=O)c1c(O)c3c(c(O)c1C2=O)C[C@@](O)(C(=O)CO)C[C@@H]3O[C@H]1C[C@H](N)[C@H](O)[C@H](C)O1 [DOXORUBICIN],5.34,8.00,5.57,5.20
8,6.31 ×10³ /M,1.56,462 to 465,,,,O=C1NC(=S)S/C1=C\c1c[nH]c2ccc(Br)cc12,4.93,< 4.30,5.44,< 4.30
